Measured values reported in ChEMBL document CHEMBL1150631, “New chemical constituents of Euphorbia quinquecostata and absolute configuration assignment by a convenient Mosher ester procedure carried out in NMR tubes” (J Nat Prod, 2002).
Converted amounts (≈) assume the structure as drawn.

Experiment: Inhibition of 12-O-tetradecanoylphorbol 13-acetate-induced transformation of mouse JB6 cells after 14 days by soft agar transformation assay
Assay type: functional, cell-based

With `COc1ccc(/C=C/C=O)cc1OC` [3,4-DIMETHOXY CINNAMALDEHYDE] the IC50 was 2.3 µg/mL (≈ 12 µM).
